Target: Tyrosine-protein kinase SYK (Homo sapiens) (UniProt P43405)
Assay: Inhibition of recombinant human full length N-terminal His6-tagged SYK expressed in baculovirus Sf21 insect cells preincubated for 5 mins followed by substrate addition after 30 to 60 mins in presence of ATP by fluorescence assay

## C=CS(=O)(=O)N1CCC[C@@H]1Cn1cc(-c2ccc3c(c2)OCO3)c2c(N)ncnc21
  IC50: > 10 µM

From BindingDB's records for doi:10.1016/j.bmcl.2017.07.009 (Sichuan University and Collaborative Innovation Center, 2017)
